Patent US20220305115A1 (JANSSEN SCIENCES IRELAND UNLIMITED COMPANY, priority 2019, published 2022)

Experiments:
Type in all cases: cell-based
[1] = Off-target cytotoxicity, galactose-adapted PC-3 cells (Cell Titer Glo, 5 days); details: human, galactose-adapted PC-3, five days incubation, intracellular ATP, read-out: CC50 GALFC3 CTG 50
Source text: (§1) To assess potential off-target toxicity of certain compounds disclosed herein, the in vitro cytotoxicity of those compounds was profiled using a panel of 5 cell lines with various tissue origins. Compound cytotoxicity was examined in hepatoma-derived Huh-7 and HepG2 cells, prostate carcinoma-derived PC-3 cells, lymphoma derived MT-4 cells and a normal diploid lung cell line MRC-5. HepG2 and PC-3 cells used were adapted to grow in glucose-free galactose-containing medium. […] Cell viability was determined by measuring intracellular ATP levels following five days of continuous incubation with test compounds.
(§2) The MT-4 cell line (HTLV-1 transformed, human T lymphoblastoid cells) was obtained from the NIH AIDS Reagent program (Bathesda, Md.). The human hepatoblastoma cell line HepG2, human prostate carcinoma cell line PC-3, and normal fetal lung derived MRC-5 cells were obtained from the American Type Culture Collection (ATCC, Manassas, Va.).
(§3) Huh-7 cells were maintained in Dulbecco's Modified Eagle Medium (DMEM) supplemented with 10% fetal bovine serum (FBS, Hyclone, Logan, Utah), 1% non-essential amino acids (Gibco, Carlsbad, Calif.). PC-3 and HepG2 cells were adapted to grow in 0.2% galactose-containing, glucose-free Dulbecco's Modified Eagle Medium (DMEM) supplemented with 10% fetal bovine serum (FBS, Hyclone, Logan, Utah), 1% non-essential amino acids (Gibco, Carlsbad, Calif.), 1% Pyruvate (Cellgro), 1% Glutamax (Invitrogen, Carlsbad, Calif.). Galactose-adapted cells were maintained in the same culture medium. MRC-5 cells were maintained in Eagle's Minimum Essential Medium (EMEM) supplemented with 10% fetal bovine serum (FBS, Hyclone, Logan, Utah). […] All cell culture media were also supplemented with 100 Units/mL penicillin, 100 μg/mL streptomycin (Gibco).
Using a Biotek uFlow Workstation (Biotek, Winooski, Vt.), 1500 HepG2, 1500 PC-3, 500 Huh7 or 1500 MRC-5 cells in 90 μL of culture media were dispensed into each well of black polystyrene tissue culture-treated 384-well plates. Plated cells were incubated for 24 hours in an incubator at 37° C., 5% CO2 and 90% humidity. Compound serial dilutions were performed in 100% DMSO in 384-well polypropylene (high recovery) plates on a Biomek FX Workstation (Beckman Coulter, Fullerton, Calif.). After 3-fold serial dilutions, 0.4 μL of compounds were transferred into 384-well plates containing cells using a Velocity 11 system equipped with a Bravo 384-well pipettor. The DMSO concentration in the final assay plates was 0.44% (v/v). Cells were incubated with compound(s) for five days at 37° C.
(§4) At the end of the incubation period the cytotoxicity assay was performed as follows: Media from 384-well cell culture plates were aspirated with a Biotek EL405 plate-washer (Biotek) and cells were washed with 100 μL PBS once. Twenty microliters of Cell Titer Glo (Promega, Madison, Wis.) was added to each well of the plates with a Biotek uFlow liquid dispenser. Plates were incubated for 15 minutes at room temperature before luminescence was measured with a Perkin Elmer Envision Plate Reader (Perkin Elmer, Waltham, Mass.).

[2] = Off-target cytotoxicity, MT-4 cells (Cell Titer Glo, 5 days); details: human, MT-4, five days incubation, intracellular ATP, read-out: CC50 (MT4)
Source text: as §1, §2, §3
For the MT-4 cytotoxicity assay, 0.4 μL of serially diluted compounds were added to 40 μl of cell maintenance media in 384-well black, solid bottom plate using a Biomek FX workstation (Beckman Coulter). Two thousand cells in 35 μL were added to each well using a Biotek uFlow Workstation (Biotek). […] Assay plates were incubated for five days at 37° C. in an incubator set at 5% CO2 and 90% humidity. After five days, 22 μL of Cell Titer Glo reagent (Promega) was added to the assay plates with a Biotek uFlow Workstation. Plates were subsequently placed on a Perkin Elmer Envision Plate Reader for five minutes before the luminescence signal was read.

Huh-7 cells = test: Off-target cytotoxicity, Huh-7 cells (Cell Titer Glo, 5 days); details: Huh-7, five days incubation, intracellular ATP; read-out: CC50 HEH7 CTG 50
Source text: (§5) To assess potential off-target toxicity of certain compounds disclosed herein, the in vitro cytotoxicity of those compounds was profiled using a panel of 5 cell lines with various tissue origins. Compound cytotoxicity was examined in hepatoma-derived Huh-7 and HepG2 cells, prostate carcinoma-derived PC-3 cells, lymphoma derived MT-4 cells and a normal diploid lung cell line MRC-5. HepG2 and PC-3 cells used were adapted to grow in glucose-free galactose-containing medium. These cells have a relatively higher sensitivity to inhibitors of mitochondrial oxidative phosphorylation compared to the same cells maintained in standard glucose-containing culture medium (Marroquin et al., Toxicol. Sci. 2007; 97 (2):539-47). Cell viability was determined by measuring intracellular ATP levels following five days of continuous incubation with test compounds.
as §2, with “The human hepatoma Huh-7 cell line was obtained from ReBLikon GmbH (Mainz, Germany) {20879}. The MT-4” for “The MT-4”
(§6) Huh-7 cells were maintained in Dulbecco's Modified Eagle Medium (DMEM) supplemented with 10% fetal bovine serum (FBS, Hyclone, Logan, Utah), 1% non-essential amino acids (Gibco, Carlsbad, Calif.). PC-3 and HepG2 cells were adapted to grow in 0.2% galactose-containing, glucose-free Dulbecco's Modified Eagle Medium (DMEM) supplemented with 10% fetal bovine serum (FBS, Hyclone, Logan, Utah), 1% non-essential amino acids (Gibco, Carlsbad, Calif.), 1% Pyruvate (Cellgro), 1% Glutamax (Invitrogen, Carlsbad, Calif.). Galactose-adapted cells were maintained in the same culture medium. MRC-5 cells were maintained in Eagle's Minimum Essential Medium (EMEM) supplemented with 10% fetal bovine serum (FBS, Hyclone, Logan, Utah). MT-4 cells were maintained in RPMI-1640 supplemented with 10% fetal bovine serum (FBS, Hyclone, Logan, Utah). All cell culture media were also supplemented with 100 Units/mL penicillin, 100 μg/mL streptomycin (Gibco).
(§7) Using a Biotek uFlow Workstation (Biotek, Winooski, Vt.), 1500 HepG2, 1500 PC-3, 500 Huh7 or 1500 MRC-5 cells in 90 μL of culture media were dispensed into each well of black polystyrene tissue culture-treated 384-well plates. Plated cells were incubated for 24 hours in an incubator at 37° C., 5% CO2 and 90% humidity. Compound serial dilutions were performed in 100% DMSO in 384-well polypropylene (high recovery) plates on a Biomek FX Workstation (Beckman Coulter, Fullerton, Calif.). After 3-fold serial dilutions, 0.4 μL of compounds were transferred into 384-well plates containing cells using a Velocity 11 system equipped with a Bravo 384-well pipettor. The DMSO concentration in the final assay plates was 0.44% (v/v). Cells were incubated with compound(s) for five days at 37° C. Puromycin (44 μM final concentration) and DMSO (0.44%, v/v) were used as a positive and negative controls, respectively
as §4
(§8) CC50 values were defined as the compound concentration that caused a 50% decrease in luminescence signal, and were calculated by non-linear regression using Pipeline Pilot software by applying a four parameter fit equation (Accelrys, San Diego, Calif.). Individual CC50 values are listed as μM concentrations.

MRC-5 cells = test: Off-target cytotoxicity, MRC-5 cells (Cell Titer Glo, 5 days); details: MRC-5, five days incubation, intracellular ATP; read-out: CC50 MHCS CTG 50
Source text: as §5
as §2, with “The human hepatoma Huh-7 cell line was obtained from ReBLikon GmbH (Mainz, Germany) {20879}. The MT-4” for “The MT-4”
as §6, §7, §4, §8

[3] = Off-target cytotoxicity, galactose-adapted HepG2 cells (Cell Titer Glo, 5 days); details: human, galactose-adapted HepG2, five days incubation, intracellular ATP, read-out: CC50 GALHEPG2 CTG 50
Source text: as §5
as §2, with “The human hepatoma Huh-7 cell line was obtained from ReBLikon GmbH (Mainz, Germany) {20879}. The MT-4” for “The MT-4”
as §6, §7, §4, §8

human TLR7 = target: T1, human TLR7 (Homo sapiens, UniProt Q9NYK1); test: HEK-Blue human TLR7 cell SEAP reporter assay (NF-κB activation); details: HEK-Blue human TLR7 cells, stimulation for 20 hours, Quanti Blue read at 640 nm
T1 construct: host or cells: HEK-Blue human TLR7 cells (HEK293-derived reporter line)
T1 sequence (Q9NYK1 27-1049): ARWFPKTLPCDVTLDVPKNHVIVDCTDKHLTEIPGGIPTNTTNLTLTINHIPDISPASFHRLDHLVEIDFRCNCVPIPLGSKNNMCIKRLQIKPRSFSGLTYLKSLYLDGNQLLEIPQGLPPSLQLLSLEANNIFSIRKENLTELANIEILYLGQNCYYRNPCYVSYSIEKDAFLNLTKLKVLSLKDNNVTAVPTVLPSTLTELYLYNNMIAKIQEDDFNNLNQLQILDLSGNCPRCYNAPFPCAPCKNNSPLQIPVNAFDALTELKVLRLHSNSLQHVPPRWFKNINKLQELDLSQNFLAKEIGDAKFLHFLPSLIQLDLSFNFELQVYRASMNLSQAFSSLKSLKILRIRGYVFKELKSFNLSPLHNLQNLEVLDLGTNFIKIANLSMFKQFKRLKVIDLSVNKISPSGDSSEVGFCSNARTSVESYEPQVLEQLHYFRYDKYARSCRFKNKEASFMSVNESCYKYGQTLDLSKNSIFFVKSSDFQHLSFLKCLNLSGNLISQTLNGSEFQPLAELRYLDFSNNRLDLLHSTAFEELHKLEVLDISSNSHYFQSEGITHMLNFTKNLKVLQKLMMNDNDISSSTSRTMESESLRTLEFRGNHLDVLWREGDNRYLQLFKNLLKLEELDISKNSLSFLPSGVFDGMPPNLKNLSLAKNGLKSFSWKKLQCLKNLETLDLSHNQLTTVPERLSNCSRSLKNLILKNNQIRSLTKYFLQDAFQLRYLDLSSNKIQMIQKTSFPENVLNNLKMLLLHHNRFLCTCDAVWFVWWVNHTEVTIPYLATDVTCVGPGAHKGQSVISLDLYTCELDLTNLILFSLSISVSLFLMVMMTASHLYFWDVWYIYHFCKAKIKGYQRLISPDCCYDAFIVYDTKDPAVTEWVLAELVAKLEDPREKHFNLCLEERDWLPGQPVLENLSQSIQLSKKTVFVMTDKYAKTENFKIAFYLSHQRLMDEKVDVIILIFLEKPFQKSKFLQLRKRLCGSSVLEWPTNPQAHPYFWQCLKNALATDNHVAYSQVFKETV
Source text: For TLR8 and TLR7 activity testing, HEK-Blue human TLR8 or TLR7 cells (Invivogen, San Diego, Calif., USA) are used, respectively. These cells are designed for studying the stimulation of human TLR8 or TLR7 by monitoring the activation of NF-κB. A SEAP (secreted embryonic alkaline phosphatase) reporter gene is placed under the control of the IFN-b minimal promoter fused to five NF-κB and AP-1-binding sites. Therefore the reporter expression is regulated by the NF-κB promoter upon stimulation of human TLR8 or TLR7 for 20 hours. The cell culture supernatant SEAP reporter activity was determined using Quanti Blue kit (Invivogen, San Diego, Ca, USA) at a wavelength of 640 nm, a detection medium that turns purple/blue in the presence of alkaline phosphatase. EC50 values were determined using Activity Base analysis (ID Business Solution, Limited).

CCCC[C@@](C)(Nc1nc(N)nc2cccnc12)C(C)O (single isomer, unassigned) [Compound 97]
CC50 at 5 days [1]: 27.5 µM
CC50 at 5 days [2]: 30 µM
CC50 (Huh-7 cells): 44.4 µM
CC50 (MRC-5 cells): 44.4 µM
CC50 at 5 days [3]: 33 µM

CCCC[C@H](CNC(C)=O)Nc1nc(N)nc2cccnc12 [Compound 51, (R)—N-(2-((2-aminopyrido[3,2-d]pyrimidin-4-yl)amino)hexyl)acetamide]
CC50 at 5 days [1]: 37.2 µM
CC50 at 5 days [2]: 57.1 µM
CC50 (Huh-7 cells): 44.4 µM
CC50 (MRC-5 cells): 44.4 µM
CC50 at 5 days [3]: ≥ 44.4 µM

CCCC[C@](C)(CNC(C)=O)Nc1nc(N)nc2cccnc12 [Compound 61]
CC50 at 5 days [1]: 44.4 µM
CC50 at 5 days [2]: 212 µM
CC50 (Huh-7 cells): 44.4 µM
CC50 (MRC-5 cells): 44.4 µM
CC50 at 5 days [3]: ≥ 44.4 µM

CCCC[C@](C)(CNC(C)=O)Nc1nc(N)nc2cc(Cl)cnc12 [Compound 65, (R)—N-(2-((2-amino-7-chloropyrido[3,2-d]pyrimidin-4-yl)amino)-2-methylhexyl)acetamide]
CC50 at 5 days [1]: 44.4 µM
CC50 at 5 days [2]: 56.6 µM
CC50 (Huh-7 cells): 44.4 µM
CC50 (MRC-5 cells): 44.4 µM
CC50 at 5 days [3]: ≥ 44.4 µM

CCCN(CCC)C(=O)C1=Cc2ccc(C3=NCc4ccccc4N3)cc2N=C(N)C1 [Example 1, 2-Amino-8-(1,4-dihydroquinazolin-2-yl)-N,N-dipropyl-3H-1-benzazepine-4-carboxamide]
EC50 (human TLR7): > 100 µM

CCCN(CCC)C(=O)C1=Cc2ccc(C3=NCc4ccncc4N3)cc2N=C(N)C1 [Example 2, 2-Amino-8-(1,4-dihydropyrido[3,4-d]pyrimidin-2-yl)-N,N-dipropyl-3H-1-benzazepine-4-carboxamide]
EC50 (human TLR7): > 100 µM

CCCN(CC1CC1)C(=O)C1=Cc2ccc(C3=NCc4ccccc4N3)cc2N=C(N)C1 [Example 3, 2-Amino-N-(cyclopropylmethyl)-8-(1,4-dihydroquinazolin-2-yl)-N-propyl-3H-1-benzazepine-4-carboxamide]
EC50 (human TLR7): > 100 µM

CCCN(CC(C)C)C(=O)C1=Cc2ccc(C3=NCc4ccccc4N3)cc2N=C(N)C1 [Example 4, 2-Amino-8-(1,4-dihydroquinazolin-2-yl)-N-isobutyl-N-propyl-3H-1-benzazepine-4-carboxamide]
EC50 (human TLR7): > 100 µM

CCCN(CCC)C(=O)C1=Cc2ccc(C3=NCc4c(Cl)cccc4N3)cc2N=C(N)C1 [Example 5, 2-Amino-8-(5-chloro-1,4-dihydroquinazolin-2-yl)-N,N-dipropyl-3H-1-benzazepine-4-carboxamide]
EC50 (human TLR7): > 100 µM

CCCN(CCC)C(=O)C1=Cc2ccc(C3=NCc4ccc(Cl)cc4N3)cc2N=C(N)C1 [Example 6, 2-Amino-8-(7-chloro-1,4-dihydroquinazolin-2-yl)-N,N-dipropyl-3H-1-benzazepine-4-carboxamide]
EC50 (human TLR7): > 100 µM
